According to BindingDB's records for doi:10.1021/jm701488f (2008):

Test: Antagonist activity at human CCR2 in PBMCs assessed as inhibition of chemotaxis

| IC50 [nM] | SMILES |
| --- | --- |
| 1200 | CSc1ccc(C(=O)N[C@@H]2CCCC[C@@H]2NC(=O)CNC(=O)c2cccc(C(F)(F)F)c2)cc1 |
| 160 | O=C(CNC(=O)c1cccc(C(F)(F)F)c1)N[C@H]1CCCC[C@H]1NC(=O)c1ccc(I)cc1 |
| 130 | NS(=O)(=O)c1ccc(C(=O)N[C@@H]2CCCC[C@@H]2NC(=O)CNC(=O)c2cccc(C(F)(F)F)c2)cc1 |
| 0.5 | NS(=O)(=O)c1ccc(C(=O)N[C@@H]2CCCC[C@@H]2NC(=O)CNC(=O)c2cc(C(F)(F)F)ccc2NC(=O)C2CCCCC2)cc1 |
| 63 | Nc1ccc(C(F)(F)F)cc1C(=O)NCC(=O)N[C@H]1CCCC[C@H]1NC(=O)c1ccc(S(N)(=O)=O)cc1 |
